According to US20190100534A1, “Cephem Compounds with Latent Reactive Groups” (Gladius Pharmaceuticals, Inc., priority 2017, published 2019):

Assays:
EC (URMC-2) = assay: MIC determination; assay type: cell-based, Escherichia coli; conditions: Escherichia coli, CAMH broth, 20 μM Apo-Transferrin, 37° C., 18 hours, read-out: Minimum Inhibitory Concentrations, EC (URMC-2)
Procedure, shortened: (§1)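 Broth microdilution in CAMH + 20 μM apo-transferrin; inoculum 0.5 McFarland, used within 30 min. Compound 64→0.125 μg/mL, twofold steps. 37 °C, 18 h. MIC = lowest clear-well concentration.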

EC (RR -1) = assay: MIC determination; assay type: cell-based, Escherichia coli; conditions: CAMH broth, 20 μM Apo-Transferrin, 37° C., 18 hours
Procedure, shortened: as §1

EC (URMC-3) = assay: MIC determination; assay type: cell-based, Escherichia coli; conditions: Escherichia coli, CAMH broth, 20 μM Apo-Transferrin, 37° C., 18 hours, read-out: Minimum Inhibitory Concentrations, EC (URMC-3)
Procedure, shortened: as §1

EC(KB2 CTX-M-15) = assay: MIC determination; assay type: cell-based, Escherichia coli; conditions: Escherichia coli, CAMH broth, 20 μM Apo-Transferrin, 37° C., 18 hours, read-out: Minimum Inhibitory Concentrations, EC(KB2 CTX-M-15)
Procedure, shortened: as §1

EC(JMI OXA-48) = assay: MIC determination; assay type: cell-based, Escherichia coli; conditions: Escherichia coli, CAMH broth, 20 μM Apo-Transferrin, 37° C., 18 hours, read-out: Minimum Inhibitory Concentrations, EC(JMI OXA-48)
Procedure, shortened: as §1

EC(KB1 CTX-M-15) = assay: MIC determination; assay type: cell-based, Escherichia coli; conditions: Escherichia coli, CAMH broth, 20 μM Apo-Transferrin, 37° C., 18 hours, read-out: Minimum Inhibitory Concentrations, EC(KB1 CTX-M-15)
Procedure, shortened: as §1

EC(ATCC NDM-1) = assay: MIC determination; assay type: cell-based, Escherichia coli; conditions: Escherichia coli, CAMH broth, 20 μM Apo-Transferrin, 37° C., 18 hours, read-out: Minimum Inhibitory Concentrations, EC(ATCC NDM-1)
Procedure, shortened: as §1

EC (RR -2) = assay: MIC determination; assay type: cell-based, Escherichia coli; conditions: CAMH broth, 20 μM Apo-Transferrin, 37° C., 18 hours
Procedure, shortened: as §1

EC (URMC-1) = assay: MIC determination; assay type: cell-based, Escherichia coli; conditions: Escherichia coli, CAMH broth, 20 μM Apo-Transferrin, 37° C., 18 hours, read-out: Minimum Inhibitory Concentrations, EC (URMC-1)
Procedure, shortened: as §1

[1] = test system: Pseudomonas aeruginosa PA-RR-(980151052); assay: MIC determination; assay type: cell-based; conditions: Pseudomonas aeruginosa; PA-RR-(980151052); CAMH broth, 20 μM Apo-Transferrin, 37° C., 18 hours; read-out: Minimum Inhibitory Concentrations, PA-RR-(980151052)
Procedure, shortened: as §1

[2] = test system: Pseudomonas aeruginosa (PA); assay: MIC determination; assay type: cell-based; conditions: Pseudomonas aeruginosa; PA; CAMH broth, 20 μM Apo-Transferrin, 37° C., 18 hours; read-out: Minimum Inhibitory Concentrations, PA
Procedure, shortened: as §1

[3] = test system: Pseudomonas aeruginosa PA (URMC-2); assay: MIC determination; assay type: cell-based; conditions: Pseudomonas aeruginosa; PA (URMC-2); CAMH broth, 20 μM Apo-Transferrin, 37° C., 18 hours; read-out: Minimum Inhibitory Concentrations, PA (URMC-2)
Procedure, shortened: as §1

[4] = test system: Pseudomonas aeruginosa PA (URMC-3); assay: MIC determination; assay type: cell-based; conditions: Pseudomonas aeruginosa; PA (URMC-3); CAMH broth, 20 μM Apo-Transferrin, 37° C., 18 hours; read-out: Minimum Inhibitory Concentrations, PA (URMC-3)
Procedure, shortened: as §1

[5] = test system: Pseudomonas aeruginosa PA-RR-(G8062859); assay: MIC determination; assay type: cell-based; conditions: Pseudomonas aeruginosa; PA-RR-(G8062859); CAMH broth, 20 μM Apo-Transferrin, 37° C., 18 hours; read-out: Minimum Inhibitory Concentrations, PA-RR-(G8062859)
Procedure, shortened: as §1

[6] = test system: Pseudomonas aeruginosa PA-RR-(G7304100); assay: MIC determination; assay type: cell-based; conditions: Pseudomonas aeruginosa; PA-RR-(G7304100); CAMH broth, 20 μM Apo-Transferrin, 37° C., 18 hours; read-out: Minimum Inhibitory Concentrations, PA-RR-(G7304100)
Procedure, shortened: as §1

KP (RR -1) = assay: MIC determination; assay type: cell-based, Klebsiella pneumoniae; conditions: CAMH broth, 20 μM Apo-Transferrin, 37° C., 18 hours
Procedure, shortened: as §1

KP (URMC-1) = assay: MIC determination; assay type: cell-based, Klebsiella pneumoniae; conditions: CAMH broth, 20 μM Apo-Transferrin, 37° C., 18 hours
Procedure, shortened: as §1

KP (URMC-3) = assay: MIC determination; assay type: cell-based, Klebsiella pneumoniae; conditions: CAMH broth, 20 μM Apo-Transferrin, 37° C., 18 hours
Procedure, shortened: as §1

KP(JMI KPC-2) = assay: MIC determination; assay type: cell-based, Klebsiella pneumoniae; conditions: CAMH broth, 20 μM Apo-Transferrin, 37° C., 18 hours
Procedure, shortened: as §1

KP (ATCC KPC-3) = assay: MIC determination; assay type: cell-based, Klebsiella pneumoniae; conditions: CAMH broth, 20 μM Apo-Transferrin, 37° C., 18 hours
Procedure, shortened: as §1

KP (GJ 5659 TEM-26) = assay: MIC determination; assay type: cell-based, Klebsiella pneumoniae; conditions: CAMH broth, 20 μM Apo-Transferrin, 37° C., 18 hours
Procedure, shortened: as §1

KP (URMC-2) = assay: MIC determination; assay type: cell-based, Klebsiella pneumoniae; conditions: CAMH broth, 20 μM Apo-Transferrin, 37° C., 18 hours
Procedure, shortened: as §1

KP(GJ 5934 TEM-26) = assay: MIC determination; assay type: cell-based, Klebsiella pneumoniae; conditions: CAMH broth, 20 μM Apo-Transferrin, 37° C., 18 hours
Procedure, shortened: as §1

KP(ATCC TEM-10/TEM-12) = assay type: cell-based, Klebsiella pneumoniae; conditions: CAMH broth, 20 μM Apo-Transferrin, 37° C., 18 hours
Procedure, shortened: as §1

ENC (ATCC NDM-1) = assay: MIC determination; assay type: cell-based, Enterobacter cloacae; conditions: CAMH broth, 20 μM Apo-Transferrin, 37° C., 18 hours
Procedure, shortened: as §1

EA (URMC -3) = assay: MIC determination; assay type: cell-based; conditions: CAMH broth, 20 μM Apo-Transferrin, 37° C., 18 hours
Experimental: (§2) Sterile technique was used throughout these experiments. Suspensions of organisms were removed from storage (−80° C.) and partially thawed. Partially thawed organisms (1 μL) were inoculated into 3 mL sterile LB Broth in a sterile culture tube and capped, then cultured at 37° C. with shaking for 4-5 hours until the optical density at 600 nm (OD600) was greater than 0.1 on a single beam spectrophotometer.
(§3) The concentration of organisms was adjusted to 0.08-0.1 OD600 (0.5 McFarland units) by dilution with sterile cation-adjusted Meuller-Hinton (CAMH) broth. The suspensions were used within 30 minutes of preparation.
(§4) A stock solution was made of each test compound by measuring 6.4 mg of the compound on an analytical balance and dissolving it in DMSO (1 mL) to get a transparent solution. The solutions were stored at −20° C. and thawed prior to use.
(§5) Sterile CAMH broth (200 μL) containing 20 μM Apo-Transferrin was pipetted into the first row of 8 columns of a sterile, round-bottomed, transparent, 96-well microplate using an 8-channel pipette equipped with sterile tips. One hundred μL was pipetted into the wells of the remaining 11 rows.
To each well of the first row was pipetted 2.0 μL of the 6.4 mg/mL stock test compound stock solution to give 1:100 dilutions and a final concentration of 64 μg/mL and mixed.
(§6) With an 8-channel pipette equipped with sterile tips, 100 μL of the first row solution was transferred to the second row and mixed. The process was repeated for the second to third rows and continued through row 11. One hundred μL from row 11 was removed and discarded so that all 12 rows contained 100 μL. Row 12 contained no compound and rows 1-11 contained 64, 32, 16, 8, 4, 2, 1, 0.5, 0.25, 0.125, […] of a given compound.
(§7) Inoculant suspensions (0.5 μL) were added to the 12 wells of each column. The plates were then covered and incubated at 37° C. overnight for 18 hours.
(§8) For each organism the MIC was determined by identifying the transparent well with the lowest test compound concentration.

ENA (URMC-1) = assay: MIC determination; assay type: cell-based, Enterobacter aerogenes; conditions: Klebsiella aerogenes, CAMH broth, 20 μM Apo-Transferrin, 37° C., 18 hours, read-out: Minimum Inhibitory Concentrations, ENA (URMC-1)
Experimental: as §2, §3, §4, §5, §6, §7, §8

ENA (URMC-2) = assay: MIC determination; assay type: cell-based, Enterobacter aerogenes; conditions: Klebsiella aerogenes, CAMH broth, 20 μM Apo-Transferrin, 37° C., 18 hours, read-out: Minimum Inhibitory Concentrations, ENA (URMC-2)
Experimental: as §2, §3, §4, §5, §6, §7, §8

In the case of CC(C)(O/N=C(\C(=O)N[C@@H]1C(=O)N2C(C(=O)O)=C(C=Cc3ccc(C[N+]4(C)Cc5cc(O)c(O)c(Cl)c5C4)cc3)CS[C@H]12)c1csc(N)n1)C(=O)O (mixture of isomers) [Compound 432, 2-(4-((E/Z)-2-((6R,7R)-7-((Z)-2-(2-aminothiazol-4-yl)-2-(((2-carboxypropan-2-yl)oxy)imino)acetamido)-2-carboxy-8-oxo-5-thia-1-azabicyclo[4.2.0]oct-2-en-3-yl)vinyl)benzyl)-4-chloro-5,6-dihydroxy-2-methylisoindolin-2-ium], the MIC (EC (URMC-2)) is reported as ≤ 0.06 µg/mL, the “Mimimum Inhibitory Concentrations, EC (RR -1)” value (EC (RR -1)) is reported as ≤0.06 microgram/mL and the MIC (EC (URMC-3)) is reported as 0.13 µg/mL. For the same compound, the MIC (EC(KB2 CTX-M-15)) was 1 µg/mL, the MIC (EC(JMI OXA-48)) was 0.5 µg/mL and the MIC (EC(KB1 CTX-M-15)) was 1 µg/mL. For the same compound, the MIC (EC(ATCC NDM-1)) was > 64 µg/mL, the “Mimimum Inhibitory Concentrations, EC (RR -2)” value (EC (RR -2)) was ≤0.06 microgram/mL and the MIC (EC (URMC-1)) was 0.5 µg/mL. The MIC [1] was 0.25 µg/mL, the MIC [2] was 0.25 µg/mL and the MIC [3] was 0.5 µg/mL. For the same compound, the MIC [4] was 1 µg/mL, the MIC [5] was 0.5 µg/mL and the MIC [6] was ≤ 0.06 µg/mL. For the same compound, the “Mimimum Inhibitory Concentrations, KP (RR -1)” value (KP (RR -1)) was 0.25 microgram/mL, the “Minimum Inhibitory Concentrations, KP (URMC-1)” value (KP (URMC-1)) was 0.13 microgram/mL and the “Minimum Inhibitory Concentrations, KP (URMC-3)” value (KP (URMC-3)) was ≤0.06 microgram/mL. The “Minimum Inhibitory Concentrations, KP(JMI KPC-2)” value (KP(JMI KPC-2)) was 64 microgram/mL, the “Minimum Inhibitory Concentrations, KP (ATCC KPC-3)” value (KP (ATCC KPC-3)) was >64 microgram/mL and the “Minimum Inhibitory Concentrations, KP (GJ 5659 TEM-26)” value (KP (GJ 5659 TEM-26)) was 1 microgram/mL. The “Minimum Inhibitory Concentrations, KP (URMC-2)” value (KP (URMC-2)) was ≤0.06 microgram/mL, the “Minimum Inhibitory Concentrations, KP(GJ 5934 TEM-26)” value (KP(GJ 5934 TEM-26)) was 0.13 microgram/mL and the “Minimum Inhibitory Concentrations, KP(ATCC TEM-10/TEM-12)” value (KP(ATCC TEM-10/TEM-12)) was 8 microgram/mL. For the same compound, the “Mimimum Inhibitory Concentrations, ENC (ATCC NDM-1)” value (ENC (ATCC NDM-1)) was >64 microgram/mL, the “Mimimum Inhibitory Concentrations, EA (URMC -3)” value (EA (URMC -3)) was 0.5 microgram/mL and the MIC (ENA (URMC-1)) was 1 µg/mL. For the same compound, the MIC (ENA (URMC-2)) was 0.25 µg/mL.
